From patent publication US10550094B2, “Compounds having antioxidant activity against free radicals and anti-inflammatory activity, and corresponding pharmaceutical or cosmetic compositions for skin care” (GIULIANI S.P.A., priority 2015, dated 2020) come the findings set out here.

The nature of this experiment: HORAC Hydroxyl radical antioxidant capacity assay. From the text:
HORAC Assay: Hydroxyl Antioxidant Capacity In Vitro
The commercial kit “Oxiselect Hydroxyl Radical Antioxidant Capacity (HORAC) activity assay” (Cell Biolabs).
The HORAC assay esxpresses the compound antiradical capacity towards the hydroxyl radical OH′ and is based on the oxidation of a fluorescent probe by hydroxyl radicals through a hydrogen transfer process (HAT). Hydroxyl radicals are produced by a radical initiator hydroxyl and by Fenton's reagent, which quenches the fluorescent probe over time. The antioxidants present in the sample block the oxidation by the hydroxyl radical of the fluorescent probe until the antioxidant activity in the sample runs out. The remaining hydroxyl radicals destroy the fluorescence of the fluorescent probe. The antioxidant capacity of the sample is related to the fluorescence decay curve, which usually is represented as the area under the curve (AUC). The AUC is used to quantify the total antioxidant activity of the hydroxyl radical in a sample and is compared to the curve of an antioxidant standard.
The compounds of the invention were tested at the following concentrations: 13.5 μM; 27 μM, 13.5 mM; 27 mM.
For comparison purposes, also samples of the compound monofurfurylidene-2.4-sorbitol defined below by the acronym ARGB11, were in this case tested under the same two concentrations, as a reference compound according to EP0345362 mentioned above as the background art of substances with free radical inhibition activity.

As to `OC[C@@H](O)[C@H]1OC(c2ccco2)O[C@@H](CO)[C@H]1O` (stereo partly shown) [ARGB11, monofurfurylidene-2.4-sorbitol, reference compound], the “HORAC (Hydroxyl Radical Antioxidant Capacity)” value (from here on “HORAC”) (13.5 μM) came out at 31.04 μMole GAE/L, the “HORAC” value (27 μM) worked out at 40.110 μMole GAE/L, the “HORAC” value (13.5 mM) came to 308.497 μMole GAE/L and the “HORAC” value (27 mM) is given as 408.795 μMole GAE/L.
